# Assay results reported in US12622948B2 (SUN PHARMACEUTICAL INDUSTRIES LIMITED, priority 2020, dated 2026).
# Marks after values point to notes of the source that are not given here. Non-standard residues stand in square brackets, D forms with d. No end group written: not given here. Moiety A = not defined here; Nva = CCC[C@H](N)C(=O)O; Aib = CC(C)(N)C(=O)O
# What was measured:
# [1] = tested on: type 2 diabetic mouse (db/db) model; experiment: Efficacy study in db/db mice at 10 nM/kg dose (blood glucose, body weight, food intake); type: in vivo
# Protocol: The effect of compounds of present invention on blood glucose, food intake and body weight was studied in mice. This study was performed in a type 2 diabetic mouse (db/db) model. […] Baseline blood glucose was measured from all the animals. […] All the animals were administered with test items subcutaneously. […] Delta blood glucose (mM) was calculated.
# [2] = tested on: type 2 diabetic mouse (db/db) model; experiment: Efficacy study in db/db mice at 3 and 20 nM/kg dose (blood glucose, body weight, food intake); type: in vivo
# Protocol: The effect of compounds of present invention on blood glucose, food intake and body weight was studied on mice. This study was performed in type 2 diabetic mouse (db/db) model. […] Baseline blood glucose was measured from all the animals. All animals were administered with test items subcutaneously. […] Delta blood glucose (mM) was calculated. Body weight changes and cumulative food consumption was measured at 72 hr post treatment.
# [3] = Study 3, db/db mice, 10 nM/kg s.c. single dose
# [4] = Study 3, db/db mice, 10 nM/kg s.c. single dose, 48 hr
# [5] = Study 3, db/db mice, 10 nM/kg s.c. single dose, 96 hr
# [6] = Study 4, db/db mice, 10 nM/kg s.c. single dose
# [7] = Study 4, db/db mice, 10 nM/kg s.c. single dose, 48 hr
# [8] = Study 4, db/db mice, 10 nM/kg s.c. single dose, 96 hr
# [9] = Study 1, db/db mice, 10 nM/kg s.c.
substance,measurement,setting,value
"Compound 9: SEQ ID 09 polypeptide (C-terminal Arg, free acid), Lys20 acylated with Moiety A (Y[Aib]EGTFTSDYSI[Nva]LDKIAQK(Moiety A)AFVQWLIAGGPSSGAPPPSR-OH; reading uncertain)","Cumulative food Intake (g) 0-48 hr. vs. Baseline, Mean",[1]; [3],4.2*** g
same,"Cumulative food Intake (g) 0-96 hr. vs. Baseline, Mean",[1]; [3],16.7*** g
same,Delta Blood Glucose (mM) Mean,"[1]; Study 3, db/db mice, 10 nM/kg s.c. single dose, 0 hr (baseline)",0 mM
same,Delta Blood Glucose (mM) Mean,"[1]; Study 3, db/db mice, 10 nM/kg s.c. single dose, 4 hr",−13.1*** mM
same,Delta Blood Glucose (mM) Mean,"[1]; Study 3, db/db mice, 10 nM/kg s.c. single dose, 8 hr",−12.7*** mM
same,Delta Blood Glucose (mM) Mean,"[1]; Study 3, db/db mice, 10 nM/kg s.c. single dose, 12 hr",−12.1*** mM
same,Delta Blood Glucose (mM) Mean,"[1]; Study 3, db/db mice, 10 nM/kg s.c. single dose, 24 hr",−8.7*** mM
same,"Body Wt. Change (%) 48 hr. vs. Baseline, Mean",[1]; [4],−3.4*** %
same,Delta Blood Glucose (mM) Mean,[1]; [4],−7.1*** mM
same,Delta Blood Glucose (mM) Mean,"[1]; Study 3, db/db mice, 10 nM/kg s.c. single dose, 72 hr",−5.6* mM
same,"Body Wt. Change (%) 96 hr. vs. Baseline, Mean",[1]; [5],−3.8*** %
same,Delta Blood Glucose (mM) Mean,[1]; [5],0 mM
"Compound 12: SEQ ID 12 polypeptide, Lys20 acylated with Moiety A (Y[Aib]EGTFTSDYSIILDKIAQK(Moiety A)AFVQWLIAGGPSSGAPPPS-NH2; reading uncertain)","Cumulative food Intake (g) 0-48 hr. vs. Baseline, Mean",[1]; [6],10.2* g
same,"Cumulative food Intake (g) 0-96 hr. vs. Baseline, Mean",[1]; [6],26.0 g
same,Delta Blood Glucose (mM) Mean,"[1]; Study 4, db/db mice, 10 nM/kg s.c. single dose, 0 hr (baseline)",0 mM
same,Delta Blood Glucose (mM) Mean,"[1]; Study 4, db/db mice, 10 nM/kg s.c. single dose, 4 hr",−14.6*** mM
same,Delta Blood Glucose (mM) Mean,"[1]; Study 4, db/db mice, 10 nM/kg s.c. single dose, 8 hr",−14.8*** mM
same,Delta Blood Glucose (mM) Mean,"[1]; Study 4, db/db mice, 10 nM/kg s.c. single dose, 12 hr",−14.9*** mM
same,Delta Blood Glucose (mM) Mean,"[1]; Study 4, db/db mice, 10 nM/kg s.c. single dose, 24 hr",−4.8** mM
same,"Body Wt. Change (%) 48 hr. vs. Baseline, Mean",[1]; [7],−3.0*** %
same,Delta Blood Glucose (mM) Mean,[1]; [7],2.5 mM
same,Delta Blood Glucose (mM) Mean,"[1]; Study 4, db/db mice, 10 nM/kg s.c. single dose, 72 hr",3.9 mM
same,"Body Wt. Change (%) 96 hr. vs. Baseline, Mean",[1]; [8],−0.4%
same,Delta Blood Glucose (mM) Mean,[1]; [8],6.8 mM
Tirzepatide [reference compound],"Cumulative food Intake (g) 0-48 hr. vs. Baseline, Mean",[1]; [9],4.9*** g
same,"Cumulative food Intake (g) 0-96 hr. vs. Baseline, Mean",[1]; [9],13.0*** g
same,"Body Wt. Change (%) 48 hr. vs. Baseline, Mean","[1]; Study 1, db/db mice, 10 nM/kg s.c., 48 hr",−4.2*** %
same,"Body Wt. Change (%) 96 hr. vs. Baseline, Mean","[1]; Study 1, db/db mice, 10 nM/kg s.c., 96 hr",−2.8*** %
same,"Cumulative Food Intake (g), 0-72 hr, Mean",[2]; 3 nM/kg s.c.,9.6*** g
same,"Body weight change (%) 72 hr vs. Baseline, Mean",[2]; 3 nM/kg s.c.,−3.4*** %
same,"Cumulative Food Intake (g), 0-72 hr, Mean",[2]; 20 nM/kg s.c.,8.4*** g
same,"Body weight change (%) 72 hr vs. Baseline, Mean",[2]; 20 nM/kg s.c.,−4.9*** %
